Experimental data from patent US20250082674A1, “METHODS OF TREATING COPPER METABOLISM-ASSOCIATED DISEASES OR DISORDERS” (priority 2021, published 2025).
Read-outs that look alike come from different tables or passages of the source.

Tests used:
[1] = Description: Adverse events were reported by the patient (or, when appropriate, by a caregiver, surrogate, or the patient's legally authorized representative). The Investigator and any qualified designees were responsible for detecting, documenting, and recording events that meet the definition of an AE or SAE and remain responsible for following up AEs that were serious, considered related to the study intervention or study procedures, or that caused the patient to discontinue the study.
Acute worsening of neurologic symptoms typically within 6 months of start of therapy is a known complication associated with chelation therapy for WD. […] Neurologic AESI for Study 301 were considered as all AEs in the Medical Dictionary for Regulatory Activities (MedDRA) System Organ Class (SOC) “Nervous system disorders” or any other AE judged by the Investigator as an AESI.

copper = details: Study 301, FIG. 23, versus SoC chelator therapy
Description: Biomarkers and Biobank Samples: Blood samples were collected to measure plasma Cp and CpC. Urine samples were collected for analysis of urine copper and molybdenum. Additional biomarker or biobank samples were collected for the analysis of molybdenum and/or copper species associated with treatment.

[2] = Hematological AEs, Primary Evaluation Period, Safety Set, BC-TTM N = 137, SoC N = 70
[3] = Primary Evaluation Period, 48 Weeks, BC-TTM N = 137, SoC N = 70
[4] = Primary Evaluation Period, Safety Set, BC-TTM N = 137, SoC N = 70
[5] = Study 301, Primary Evaluation Period

Description for albumin levels: Across the 301, 201, and 205 studies, 102 participants had cirrhosis at baseline.

Bis-choline tetrathiomolybdate [BC-TTM]
Anemia, E events [1, 2]: 7 | Anemia, N participants [1, 2]: 6 | Anemia, participants (%) [1, 2]: 4.4% | Leukopenia, E events [1, 2]: 3 | Leukopenia, N participants [1, 2]: 2 | Leukopenia, participants (%) [1, 2]: 1.5% | Neutropenia, E events [1, 2]: 6 | Neutropenia, N participants [1, 2]: 6 | Neutropenia, participants (%) [1, 2]: 4.4% | Neutrophil count decreased, E events [1, 2]: 4 | Neutrophil count decreased, N participants [1, 2]: 2 | Neutrophil count decreased, participants (%) [1, 2]: 1.5% | Thrombocytopenia, E events [1, 2]: 2 | Thrombocytopenia, N participants [1, 2]: 1 | Thrombocytopenia, participants (%) [1, 2]: 0.7% | Alanine aminotransferase increased, N participants [1, 3]: 20 | Alanine aminotransferase increased, participants (%) [1, 3]: 14.6% | Aspartate aminotransferase increased, N participants [1, 3]: 4 | Aspartate aminotransferase increased, participants (%) [1, 3]: 2.9% | Ear and labyrinth disorders, N participants [1, 3]: 7 | Ear and labyrinth disorders, participants (%) [1, 3]: 5.1% | Fatigue, N participants [1, 3]: 13 | Fatigue, participants (%) [1, 3]: 9.5% | Gamma-glutamyltransferase increased, N participants [1, 3]: 3 | Gamma-glutamyltransferase increased, participants (%) [1, 3]: 2.2% | Hepatic enzyme increased, N participants [1, 3]: 3 | Hepatic enzyme increased, participants (%) [1, 3]: 2.2% | Hepatobiliary disorders, N participants [1, 3]: 9 | Hepatobiliary disorders, participants (%) [1, 3]: 6.6% | Investigations, N participants [1, 3]: 46 | Investigations, participants (%) [1, 3]: 33.6% | Nervous system disorders, N participants [1, 3]: 47 | Nervous system disorders, participants (%) [1, 3]: 34.3% | Neutrophil count decreased, N participants [1, 3]: 2 | Neutrophil count decreased, participants (%) [1, 3]: 1.5% | Pruritus, N participants [1, 3]: 5 | Pruritus, participants (%) [1, 3]: 3.6% | Psychiatric disorders, N participants [1, 3]: 26 | Psychiatric disorders, participants (%) [1, 3]: 19.0% | Pyrexia, N participants [1, 3]: 8 | Pyrexia, participants (%) [1, 3]: 5.8% | Rash, N participants [1, 3]: 9 | Rash, participants (%) [1, 3]: 6.6% | Skin and subcutaneous tissue disorders, N participants [1, 3]: 30 | Skin and subcutaneous tissue disorders, participants (%) [1, 3]: 21.9% | ALT increased, E events [1, 4]: 25 | ALT increased, N participants [1, 4]: 20 | ALT increased, participants (%) [1, 4]: 14.6% | AST increased, E events [1, 4]: 4 | AST increased, N participants [1, 4]: 4 | AST increased, participants (%) [1, 4]: 2.9% | GGT increased, E events [1, 4]: 3 | GGT increased, N participants [1, 4]: 3 | GGT increased, participants (%) [1, 4]: 2.2% | Hepatic enzyme increased, E events [1, 4]: 5 | Hepatic enzyme increased, N participants [1, 4]: 3 | Hepatic enzyme increased, participants (%) [1, 4]: 2.2% | Hepatic function abnormal, E events [1, 4]: 3 | Hepatic function abnormal, N participants [1, 4]: 3 | Hepatic function abnormal, participants (%) [1, 4]: 2.2% | Hyperbilirubinemia, E events [1, 4]: 1 | Hyperbilirubinemia, N participants [1, 4]: 1 | Hyperbilirubinemia, participants (%) [1, 4]: 0.7% | Hypertransaminasemia, E events [1, 4]: 4 | Hypertransaminasemia, N participants [1, 4]: 2 | Hypertransaminasemia, participants (%) [1, 4]: 1.5% | Jaundice, E events [1, 4]: 1 | Jaundice, N participants [1, 4]: 1 | Jaundice, participants (%) [1, 4]: 0.7% | LFT abnormal, E events [1, 4]: 2 | LFT abnormal, N participants [1, 4]: 2 | LFT abnormal, participants (%) [1, 4]: 1.5% | LFT increased, E events [1, 4]: 4 | LFT increased, N participants [1, 4]: 4 | LFT increased, participants (%) [1, 4]: 2.9% | Liver disorder, E events [1, 4]: 1 | Liver disorder, N participants [1, 4]: 1 | Liver disorder, participants (%) [1, 4]: 0.7% | ALT increased as share of treatment-emergent adverse events (25/577) ([1]; Study 301): 4.3% | incidence of AE ALT increased ([1]; Study 301): 14.6% | incidence of SAEs, Nervous system disorders ([1]; Study 301): 4.4% | incidence of hematologic AEs, BC-TTM versus SoC ([1]; Study 301): similar | participants with Grade 4 AEs, Nervous system disorders ([1]; Study 301): 1 participant | participants with Grade 5 AEs, Nervous system disorders ([1]; Study 301): 1 participant | participants with highest severity Grade 1 AEs, Nervous system disorders ([1]; Study 301): 24.1% | participants with highest severity Grade 2 AEs, Nervous system disorders ([1]; Study 301): 13.9% | participants with neurologic AESI in the SOC Psychiatric disorders ([1]; Study 301): 3.6% | AEs in SOC Ear and labyrinth disorders [1, 5]: 5.1% | AEs in SOC Hepatobiliary disorders [1, 5]: 6.6% | AEs in SOC Investigations [1, 5]: 33.6% | AEs in SOC Psychiatric disorders [1, 5]: 19.0% | AEs in SOC Skin and subcutaneous tissue disorders [1, 5]: 21.9% | incidence of AEs in the SOC Nervous system disorders [1, 5]: 34.3% | incidence of headache [1, 5]: 8.0% | incidence of tremor [1, 5]: 7.3% | participants discontinued due to AE of anemia (Grade 1) ([1]; clinical program for BC-TTM): 1 participant | participants discontinued due to AE of neutropenia (Grade 2) ([1]; clinical program for BC-TTM): 1 participant | overall safety profile ([1]; participants with WD): acceptable safety profile and is generally well-tolerated | 24-hour urinary copper (copper): lower | Albumin Level (albumin levels; Study 201 (normal 33-49), Participant 9, Baseline): 29 mg/dL | Albumin Level (albumin levels; Study 201 (normal 33-49), Participant 9, Week 48): 45 mg/dL | Albumin Level (albumin levels; Study 201 (normal 33-49), Participant 9, Week 150, early termination): 46 mg/dL | Albumin Level (albumin levels; Study 201 (normal 33-49), Participant 10, Baseline): 29 mg/dL | Albumin Level (albumin levels; Study 201 (normal 33-49), Participant 10, Week 48): 40 mg/dL | Albumin Level (albumin levels; Study 201 (normal 33-49), Participant 10, Week 98): 40 mg/dL | Albumin Level (albumin levels; Study 201 (normal 33-49), Participant 10, Week 163, early termination): 39 mg/dL | Albumin Level (albumin levels; Study 201 (normal 33-49), Participant 11, Baseline): 31 mg/dL | Albumin Level (albumin levels; Study 201 (normal 33-49), Participant 11, Week 48): 44 mg/dL | Albumin Level (albumin levels; Study 201 (normal 33-49), Participant 11, Week 98): 46 mg/dL | Albumin Level (albumin levels; Study 201 (normal 33-49), Participant 11, Week 150): 44 mg/dL | Albumin Level (albumin levels; Study 205 (normal 35-55), Participant 12, Baseline): 36 mg/dL | Albumin Level (albumin levels; Study 205 (normal 35-55), Participant 12, Day 43): 33 mg/dL | Albumin Level (albumin levels; Study 205 (normal 35-55), Participant 12, Day 57): 30 mg/dL | Albumin Level (albumin levels; Study 205 (normal 35-55), Participant 12, Day 169): 34 mg/dL | Albumin Level (albumin levels; Study 205 (normal 35-55), Participant 12, Day 253): 34 mg/dL | Albumin Level (albumin levels; Study 205 (normal 35-55), Participant 12, Day 337, early termination): 37 mg/dL | Albumin Level (albumin levels; Study 205 (normal 35-55), Participant 13, Baseline): 45 mg/dL | Albumin Level (albumin levels; Study 205 (normal 35-55), Participant 13, Day 345): 27 mg/dL | Albumin Level (albumin levels; Study 301 (normal 35-55), Participant 1, Baseline): 33 mg/dL | Albumin Level (albumin levels; Study 301 (normal 35-55), Participant 1, Week 48): 47 mg/dL | Albumin Level (albumin levels; Study 301 (normal 35-55), Participant 1, Week 96): 48 mg/dL | Albumin Level (albumin levels; Study 301 (normal 35-55), Participant 2, Baseline): 37 mg/dL | Albumin Level (albumin levels; Study 301 (normal 35-55), Participant 2, Week 48): 34 mg/dL | Albumin Level (albumin levels; Study 301 (normal 35-55), Participant 2, Week 60, early termination): 25 mg/dL | Albumin Level (albumin levels; Study 301 (normal 35-55), Participant 3, Baseline): 34 mg/dL | Albumin Level (albumin levels; Study 301 (normal 35-55), Participant 3, Week 48): 36 mg/dL | Albumin Level (albumin levels; Study 301 (normal 35-55), Participant 3, Week 60): 34 mg/dL | Albumin Level (albumin levels; Study 301 (normal 35-55), Participant 4, Baseline): 28 mg/dL | Albumin Level (albumin levels; Study 301 (normal 35-55), Participant 4, Week 48): 31 mg/dL | Albumin Level (albumin levels; Study 301 (normal 35-55), Participant 5, Baseline): 32 mg/dL | Albumin Level (albumin levels; Study 301 (normal 35-55), Participant 5, Week 48): 37 mg/dL | Albumin Level (albumin levels; Study 301 (normal 35-55), Participant 5, Week 96): 37 mg/dL | Albumin Level (albumin levels; Study 301 (normal 35-55), Participant 6, Baseline): 29 mg/dL | Albumin Level (albumin levels; Study 301 (normal 35-55), Participant 6, Week 24): 35 mg/dL | Albumin Level (albumin levels; Study 301 (normal 35-55), Participant 6, Week 48): 42 mg/dL | Albumin Level (albumin levels; Study 301 (normal 35-55), Participant 6, Week 96): 40 mg/dL | Albumin Level (albumin levels; Study 301 (normal 35-55), Participant 7, Baseline (Week 48 Extension Day 1)): 42 mg/dL | Albumin Level (albumin levels; Study 301 (normal 35-55), Participant 7, Week 8): 37 mg/dL | Albumin Level (albumin levels; Study 301 (normal 35-55), Participant 7, Week 24): 36 mg/dL | Albumin Level (albumin levels; Study 301 (normal 35-55), Participant 7, Week 30): 35 mg/dL | Albumin Level (albumin levels; Study 301 (normal 35-55), Participant 7, Week 48): 35 mg/dL | Albumin Level (albumin levels; Study 301 (normal 35-55), Participant 7, Week 144): 37 mg/dL | Albumin Level (albumin levels; Study 301 (normal 35-55), Participant 8, Baseline (Week 48 Extension Day 1)): 42 mg/dL | Albumin Level (albumin levels; Study 301 (normal 35-55), Participant 8, Week 120, early termination): 32 mg/dL | participants with cirrhosis at baseline who experienced changes in albumin levels (albumin levels; of 102, Studies 301, 201, 205): 13 participants | participants with cirrhosis at baseline whose albumin levels remained stable (albumin levels; of 102, Studies 301, 201, 205): 89 participants | participants with cirrhosis at baseline who maintained liver function (albumin levels) (albumin levels; of 102 participants): 87% | cirrhotic participants whose albumin levels returned to the normal range (albumin levels; of the 13 with changes in liver function): 7 participants
